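Method: 48-hour compound exposure of cells in 96-well plates, five concentrations, linear interpolation of endpoints. GI50 = concentration required for 50% inhibition of growth. TGI denotes the concentration required for complete inhibition of growth.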
Tests used:
Test in all cases: growth of human tumour cells (NCI), 48 h
CCRF-CEM leukemia = tested on: CCRF-CEM leukemia
EKVX NSCLC = tested on: EKVX NSCLC
IGROV1 ovarian = tested on: IGROV1 ovarian
HCT-116 colon = tested on: HCT-116 colon
NCI-H522 lung = tested on: NCI-H522 lung
SF-295 CNS = tested on: SF-295 CNS
RPMI-8226 leukemia = tested on: RPMI-8226 leukemia
OVCAR-8 ovarian = tested on: OVCAR-8 ovarian
SNB-75 CNS = tested on: SNB-75 CNS
SK-MEL-2 melanoma = tested on: SK-MEL-2 melanoma

Structure (SMILES) | TGI (CCRF-CEM leukemia) [µM] | TGI (EKVX NSCLC) [µM] | TGI (IGROV1 ovarian) [µM] | TGI (HCT-116 colon) [µM] | TGI (NCI-H522 lung) [µM] | TGI (SF-295 CNS) [µM] | TGI (RPMI-8226 leukemia) [µM] | TGI (OVCAR-8 ovarian) [µM] | TGI (SNB-75 CNS) [µM] | TGI (SK-MEL-2 melanoma) [µM] | GI50 (CCRF-CEM leukemia) [µM] | GI50 (EKVX NSCLC) [µM] | GI50 (IGROV1 ovarian) [µM] | GI50 (HCT-116 colon) [µM] | GI50 (NCI-H522 lung) [µM] | GI50 (SF-295 CNS) [µM] | GI50 (RPMI-8226 leukemia) [µM] | GI50 (OVCAR-8 ovarian) [µM] | GI50 (SNB-75 CNS) [µM] | GI50 (SK-MEL-2 melanoma) [µM]
O=C1CC=C2C3CC4N(CCC45c4ccccc4N1C25)C/C3=C\CO (stereo not given) | > 100 | > 100 | > 100 | > 100 | > 100 | > 100 | > 100 | > 100 | > 100 | > 100 | – | – | – | – | – | – | – | – | – | –
O=c1cc(-c2ccccc2)oc2c(O)c(O)ccc12 | > 100 | > 100 | 47.1 | > 100 | > 100 | > 100 | 50.9 | > 100 | > 100 | > 100 | 3.45 | 18.4 | 6.99 | 4.01 | 8.27 | 7.8 | 4.03 | 5.65 | 28.7 | 44.9
N[C@@H](Cc1c[nH]c2ccccc12)C(=O)NC1CCN(Cc2c[nH]c3ccc(Cl)cc23)CC1 | 4.95 | 25.1 | 23.4 | 12.6 | 22.7 | 20.1 | 23.3 | 29.6 | 29.1 | 31.8 | 2.15 | 10.9 | 8.78 | 3.87 | 10 | 6.34 | 6.23 | 15.1 | 11.6 | 16.6
COc1ccc2c(c1)/C(=C\c1c(-c3ccccc3)nc3sccn13)C(=O)N2 | > 100 | > 43.6 | 52.3 | 8.19 | 67.3 | 0.967 | 5.51 | > 72.2 | 23.5 | 44.5 | 5.5 | 12.1 | 13.9 | 1.43 | 27 | 0.268 | 1.57 | 20.9 | 7.16 | 18
COc1ccc2c(c1)c1ccc3c(c1n2C)C(=O)C=CC3=O | 2.47 | 35.7 | 28.3 | 14 | 7.35 | 56.9 | 7.35 | 26.6 | 68.9 | 34.7 | – | – | – | – | – | – | – | – | – | –
COc1cccc(/C=C2\N=C(Cl)OC2=O)c1O | > 100 | > 100 | > 100 | > 100 | > 100 | > 100 | > 100 | > 100 | > 93.3 | > 100 | – | – | – | – | – | – | – | – | – | –
C=C[C@@H]1CCC/C=C/[C@@H]2C[C@H](O)C[C@H]2[C@H](O)/C=C/C(=O)O1 | > 100 | > 100 | > 100 | 2.49 | 4.24 | > 100 | 3.4 | > 100 | > 100 | 8.53 | 2.42 | 0.543 | 1.7 | 0.866 | 1.52 | 0.912 | 0.448 | 0.44 | 0.397 | 0.832
O=C(Nc1ccc(Cl)cc1)c1cc(NCc2cc(O)ccc2O)ccc1O | 6.79 | 23.7 | 38.8 | 18.2 | 1.88 | 36.3 | 4.41 | 20.1 | 8.99 | 27.3 | 0.605 | 5.5 | 11.2 | 3.48 | 0.488 | 15.4 | 0.57 | 4.35 | 1.99 | 12.2
COc1ccc(-c2oc3ncnc(N)c3c2-c2ccc(NC(=O)Nc3cc(C(F)(F)F)ccc3F)cc2)cc1 | 11.8 | 9.74 | 5.82 | 2.84 | 4.28 | 7.47 | 10.1 | 3.73 | 4.35 | 3.5 | 0.934 | 1.59 | 0.995 | 0.883 | 1.23 | 1.88 | 2.26 | 0.79 | 1.51 | 1.01
NC1=C(O)/C(=N/NS(=O)(=O)c2ccccc2)C(c2ccc3c(c2)OCO3)O1 (stereo not given) | > 100 | > 100 | > 100 | > 100 | > 100 | > 100 | > 100 | > 100 | > 100 | > 100 | – | – | – | – | – | – | – | – | – | –

From PubChem BioAssay (NCI)
